Source: PMC10435442, “Developing multitarget coumarin based anti-breast cancer agents: synthesis and molecular modeling study” (Scientific Reports, 2023)
In brackets after ≈: the same amount, converted by molar mass. Several values for one entry are separate records, joined by “and”; a condition that tells them apart may be missing. Identical values can stand only once. Like-named read-outs stand apart in the source and are kept apart here.

Tests used:
MDA-MB-231 = test: MTT cytotoxicity assay, MDA-MB-231; conditions: for IC50: Homo sapiens; for % viability: MDA
MCF-10A = test: MTT cytotoxicity assay, nonmalignant MCF-10A; conditions: read-out: MCF-10A IC50; MTT, nonmalignant MCF-10A;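 note: MTT assay with absorbance read at 570 nm after 48 h exposure of cells to serial compound concentrations at 37 °C, testing selectivity against nonmalignant versus cancer cells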
in vitro = conditions: human, MCF-10A cells (nonmalignant breast)
MCF-7 = test: MTT cytotoxicity assay, MCF-7; conditions: for IC50: Homo sapiens
EGFR = EGFR (Homo sapiens, UniProt P00533); test: In vitro EGFR enzyme inhibition assay (ELISA); conditions: for EGFR %inh: lab report 01-11-2021
Chain of EGFR (P00533 25-1210): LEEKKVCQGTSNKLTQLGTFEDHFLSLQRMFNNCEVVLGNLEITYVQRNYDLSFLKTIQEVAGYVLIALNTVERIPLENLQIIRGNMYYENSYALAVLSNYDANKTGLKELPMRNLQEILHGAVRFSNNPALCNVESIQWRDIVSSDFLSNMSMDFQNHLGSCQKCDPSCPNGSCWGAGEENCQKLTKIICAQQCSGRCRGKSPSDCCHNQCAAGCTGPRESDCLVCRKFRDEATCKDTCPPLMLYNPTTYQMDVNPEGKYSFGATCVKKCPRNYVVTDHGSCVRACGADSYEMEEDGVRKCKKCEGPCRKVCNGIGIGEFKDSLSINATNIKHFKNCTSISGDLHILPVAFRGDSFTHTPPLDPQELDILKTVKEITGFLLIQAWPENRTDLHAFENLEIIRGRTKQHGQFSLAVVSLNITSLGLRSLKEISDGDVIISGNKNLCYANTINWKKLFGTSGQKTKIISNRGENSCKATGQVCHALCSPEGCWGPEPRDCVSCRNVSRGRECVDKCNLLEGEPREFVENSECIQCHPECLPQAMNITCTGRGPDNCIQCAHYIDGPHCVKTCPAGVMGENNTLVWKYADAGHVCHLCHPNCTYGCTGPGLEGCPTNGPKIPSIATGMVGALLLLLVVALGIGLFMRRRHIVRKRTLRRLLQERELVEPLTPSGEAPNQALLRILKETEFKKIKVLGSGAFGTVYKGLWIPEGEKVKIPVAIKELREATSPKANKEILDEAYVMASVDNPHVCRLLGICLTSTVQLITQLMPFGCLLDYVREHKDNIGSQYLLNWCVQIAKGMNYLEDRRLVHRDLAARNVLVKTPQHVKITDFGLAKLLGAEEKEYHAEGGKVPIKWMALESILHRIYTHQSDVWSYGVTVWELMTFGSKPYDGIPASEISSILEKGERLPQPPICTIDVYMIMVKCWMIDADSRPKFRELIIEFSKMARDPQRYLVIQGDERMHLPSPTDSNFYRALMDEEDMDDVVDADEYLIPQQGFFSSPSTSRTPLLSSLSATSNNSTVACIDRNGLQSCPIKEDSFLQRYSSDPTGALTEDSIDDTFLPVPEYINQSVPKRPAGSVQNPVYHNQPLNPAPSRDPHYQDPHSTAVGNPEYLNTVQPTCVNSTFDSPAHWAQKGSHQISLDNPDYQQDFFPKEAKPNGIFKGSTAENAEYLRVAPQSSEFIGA

Bcl-2 = Bcl-2 level (ELISA) in treated cells; type: cell-based, human
Bax = Bax level (ELISA) in treated cells; type: cell-based, human
Caspase-9 = Caspase-9 level (ELISA) in treated cells; type: cell-based, human
[1] = MDA-MB-231, read-out: MDA-MBA-231 IC50
[2] = MDA-MB-231, read-out: cytotoxicity_IC50 MDA
[3] = MCF7, read-out: cytotoxicity_IC50 mcf7
[4] = EGFR IC50, lab report 01-11-2021, 10 compounds

Structure (SMILES)	IC50 (MDA-MB-231; [1]) [µM]	IC50 (MDA-MB-231; [2]) [µg/mL]	% viability (MDA-MB-231; 0.4ug (log conc. -0.41)) [%]	IC50 (MCF-10A) [µM]	IC50 at 48 h (in vitro) [µg/mL]	viability at 48 h, 0.4 ug (in vitro) [%]	viability at 48 h, 1.6 ug (in vitro) [%]	viability at 48 h, 6.25 ug (in vitro) [%]	viability at 48 h, 25 ug (in vitro) [%]	viability at 48 h, 100 ug (in vitro) [%]	IC50 (MCF-7; MCF7, read-out: MCF-7 IC50) [µM]	IC50 (MCF-7; [3]) [µg/mL]	% viability (MCF-7; MCF7, 0.4ug) [%]	% viability (MCF-7; MCF7, 1.6ug) [%]	% viability (MCF-7; MCF7, 6.3ug) [%]	% viability (MCF-7; MCF7, 25ug) [%]	% viability (MCF-7; MCF7, 100ug) [%]	IC50 (EGFR; [4]) [µM]	IC50 (EGFR; EGFR inhibition IC50) [µM]	Percentage above Reference IC50 (potency relative to erlotinib) (EGFR) [%]	other results
COc1ccccc1C(=O)OCc1cc(=O)oc2cc(O)ccc12 [Compound 4, (7-Hydroxy-2-oxo-2H-chromen-4-yl)methyl 2-methoxybenzoate]	6.4 ± 0.11	2.08 ± 0.11	60.769	128 ± 2.03	41.6 ± 2.03 (≈ 127 µM)	76.8	69.5	61.1	53.6	44.3	17.2 ± 0.34	5.6 ± 0.34	68.369	58.612	49.509	38.9	30.9103	0.438	0.438 ± 0.027	19.178	% viability (MDA-MB-231; 1.6ug (log conc. 0.19)): 51.538%; % viability (MDA-MB-231; 6.25ug (log conc. 0.8)): 43.254%; % viability (MDA-MB-231; 25ug (log conc. 1.4)): 34.142%; % viability (MDA-MB-231; 100ug (log conc. 2)): 25.2071%; EGFR %inh (EGFR; conc 0.01 (unit not given)): 25%; EGFR %inh (EGFR; conc 0.1 (unit not given)): 46%; EGFR %inh (EGFR; conc 1 (unit not given)): 70%; EGFR %inh (EGFR; conc 10 (unit not given)): 87%
O=C(COc1ccc2c(COC(=O)c3ccc(Cl)cc3)cc(=O)oc2c1)c1ccccc1 [Compound 9, [2-Oxo-7-(2-oxo-2-phenylethoxy)-2H-chromen-4-yl]methyl 4-chlorobenzoate]	10.4 ± 0.25	4.65 ± 0.25	–	301 ± 6.56	135 ± 6.56 (≈ 301 µM)	90.6	79.6	70.3	61.8	52.3	100 ± 2.73	45 ± 2.73	77.17	70.74	62.232	54.2277	44.25	0.131	0.131 ± 0.009	64.122	anti-proliferative activity against MDA-MB-231 (in words) (MDA-MB-231; SAR discussion): poor anti-proliferative activity; anti-proliferative activity against MCF-7 (in words) (MCF-7; SAR discussion): diminished the activity
O=C(OCc1cc(=O)oc2cc(O)ccc12)c1ccc(Cl)cc1 [Compound 3, (7-Hydroxy-2-oxo-2H-chromen-4-yl)methyl 4-chlorobenzoate]	67.5 ± 1.22	22.3 ± 1.22	76.24	369 ± 5.93	122 ± 5.93 (≈ 369 µM)	95.8	83.9	72.9	61.2	52.7	36.6 ± 0.74	12.1 ± 0.74	72.04	65.12	53.704	45.5556	35.679	0.974	0.974 ± 0.06	8.624	% viability (MDA-MB-231; 1.6ug (log conc. 0.19)): 65.98%; % viability (MDA-MB-231; 6.25ug (log conc. 0.8)): 58.685%; % viability (MDA-MB-231; 25ug (log conc. 1.4)): 49.2762%; % viability (MDA-MB-231; 100ug (log conc. 2)): 40.41%; EGFR %inh (EGFR; conc 0.01 (unit not given)): 17%; EGFR %inh (EGFR; conc 0.1 (unit not given)): 36%; EGFR %inh (EGFR; conc 1 (unit not given)): 60%; EGFR %inh (EGFR; conc 10 (unit not given)): 85%
O=C(COc1ccc2c(COC(=O)c3ccccc3)cc(=O)oc2c1)c1ccc(Cl)cc1 [Compound S8]	–	–	–	–	–	–	–	–	–	–	–	–	–	–	–	–	–	–	–	–	BCL2 conc. (Bcl-2; MCF7): 3.291 ± 0.36 ng/mL; BCL2 FLD (Bcl-2; MCF7, fold vs cont.MCF7 = 1): 0.44; Bcl-2 Conc. (Average) (Bcl-2; MCF7 cells treated with the compound, Bcl-2 ELISA, mean of 3 wells, control 7.438): 3.291 ng/mL; Bcl-2 Conc. (single wells) (Bcl-2; MCF7 cells treated with the compound, Bcl-2 ELISA, replicate wells, control 7.438): 3.693 ng/mL and 3.01 ng/mL and 3.172 ng/mL; Bax Conc. (Average) (Bax; MCF7, ELISA backfit, wells A2-C2): 164.5 pg/mL; BAX (Bax; MCF7, cell culture supernatant): 164.5 ± 5.58 pg/mL; BAX FLD (Bax; MCF7, fold vs cont.MCF7 = 1): 5.27; Casp9 (Caspase-9; MCF7 cells treated with the compound, cont.MCF7 4.528±0.61): 30.39 ± 2.56 ng/mL; Caspase 9 Conc. (Average) (Caspase-9; MCF7 cells, caspase9 ELISA, mean of 3 wells, control 4.528): 30.39 ng/mL; Caspase 9 Conc. (single wells) (Caspase-9; MCF7 cells, caspase9 ELISA, replicate wells, control 4.528): 27.43 ng/mL and 31.78 ng/mL and 31.97 ng/mL; Casp9 FLD (fold vs control) (Caspase-9; MCF7 cells, cont.MCF7 = 1): 6.71
